Results published in ChEMBL document CHEMBL5113416, “Glycosylation increases the anti-QS as well as anti-biofilm and anti-adhesion ability of the cyclo (L-Trp-L-Ser) against Pseudomonas aeruginosa” (Eur J Med Chem, 2022).
Calls of active or inactive are those of the source. The calls are words filed in the database; no cut-off is given here.

Columns and labels:
[1] = tested on: Pseudomonas aeruginosa; assay: Anti-adhesion activity against Pseudomonas aeruginosa PAO1 assessed as inhibition of adhesion ability at 50 ug/ml incubated for 3 hrs using glass as substrate by colony-counting method; format: functional
[2] = tested on: Pseudomonas aeruginosa; assay: Anti-adhesion activity against Pseudomonas aeruginosa PAO1 assessed as inhibition of adhesion ability at 50 ug/ml incubated for 3 hrs using glass as substrate by SEM analysis; format: functional, organism-based; settings: dose 50.0 µg/ml
[3] = tested on: Pseudomonas aeruginosa; assay: Bactericidal activity against Pseudomonas aeruginosa PAO1 assessed as reduction in bacterial density at 150 ug/ml incubated for 1 hrs by colony-counting method; format: functional; parameters: scale not given: the % may be the effect or the level left; settings: dose 150 µg/ml
[4] = tested on: Pseudomonas aeruginosa; assay: Bactericidal activity against Pseudomonas aeruginosa PAO1 assessed as reduction in bacterial density at 150 ug/ml incubated for 6 hrs by colony-counting method; format: functional; parameters: scale not given: the % may be the effect or the level left; settings: dose 150 µg/ml
[5] = tested on: A549; assay: Cytotoxicity against human A549 cells assessed as reduction in cell viability at 2 mM incubated for 24 hrs by MTT assay; format: toxicity, cell-based; settings: a549, 24 h, 2000 µM
[6] = tested on: Pseudomonas aeruginosa; assay: Antibiofilm activity against Pseudomonas aeruginosa PAO1 assessed as inhibition of swarming motility at 200 uM for 18 hrs by motility assay; format: functional, organism-based
[7] = Inhibition of quorum sensing system in Pseudomonas aeruginosa PAO1 assessed as decrease of pyocyanin production at 10 to 200 uM for 18 hrs by microplate reader analysis; settings: dose 10-200 µM
[8] = biological target: Elastase (Pseudomonas aeruginosa (strain ATCC 15692 / PAO1 / 1C / PRS 101 / LMG12228)) (UniProt P14756); assay: Inhibition of Pseudomonas aeruginosa PAO1 elastase activity at 10 to 200 uM for 18 hrs by elastin Congo red based microplate reader analysis; settings: dose 10-200 µM
Elastase (Pseudomonas aeruginosa (strain ATCC 15692 / PAO1 / 1C / PRS 101 / LMG12228)), sequence (P14756 198-498 limits assumed): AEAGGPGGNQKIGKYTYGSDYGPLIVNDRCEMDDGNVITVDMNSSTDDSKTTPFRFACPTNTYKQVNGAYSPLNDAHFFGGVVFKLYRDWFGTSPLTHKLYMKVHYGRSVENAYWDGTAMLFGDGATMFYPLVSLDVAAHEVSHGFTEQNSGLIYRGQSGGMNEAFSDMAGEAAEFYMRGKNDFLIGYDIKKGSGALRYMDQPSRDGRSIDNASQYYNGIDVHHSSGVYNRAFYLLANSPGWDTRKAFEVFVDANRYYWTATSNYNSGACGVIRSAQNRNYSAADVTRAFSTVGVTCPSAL

[9] = Inhibition of quorum sensing system in Pseudomonas aeruginosa PAO1 assessed as downregulation of rhlR gene expression at 200 uM by qRT-PCR analysis
[10] = Inhibition of quorum sensing system in Pseudomonas aeruginosa PAO1 assessed as downregulation of […] gene expression at 200 uM by qRT-PCR analysis
[11] = tested on: Pseudomonas aeruginosa; assay: Antibiofilm activity against Pseudomonas aeruginosa PAO1 assessed as inhibition of biofilm formation at 200 uM incubated for 24 hrs in presence of CaCl2 by crystal violet staining based microscopic analysis; format: functional
[12] = tested on: Pseudomonas aeruginosa; assay: Antibiofilm activity against Pseudomonas aeruginosa PAO1 assessed as inhibition of biofilm formation at 10 to 200 uM incubated for 24 hrs in presence of CaCl2 by crystal violet staining based microscopic analysis; format: functional, organism-based; settings: dose 10-200 µM
[13] = tested on: Pseudomonas aeruginosa; assay: Antibiofilm activity against Pseudomonas aeruginosa PAO1 assessed as inhibition of biofilm formation incubated for 24 hrs in presence of CaCl2 by crystal violet staining based microscopic analysis; format: functional, organism-based; settings: PAO1, 24 h
[14] = tested on: Pseudomonas aeruginosa; assay: Antibiofilm activity against Pseudomonas aeruginosa PAO1 assessed as disruption of preformed biofilm incubated for 4 hrs by crystal violet staining based microscopic analysis; format: functional, organism-based; settings: PAO1, 4 h
[15] = tested on: Pseudomonas aeruginosa; assay: Antibiofilm activity against Pseudomonas aeruginosa PAO1 assessed as disruption of preformed biofilm at 200 uM incubated for 4 hrs by crystal violet staining based microscopic analysis; format: functional
[16] = tested on: Pseudomonas aeruginosa; assay: Antibiofilm activity against Pseudomonas aeruginosa PAO1 assessed as disruption of preformed biofilm at 200 uM incubated for 4 hrs by SEM analysis; format: functional, organism-based
[17] = tested on: Pseudomonas aeruginosa; assay: Antibiofilm activity against Pseudomonas aeruginosa PAO1 assessed as disruption of preformed biofilm at 200 uM incubated for 4 hrs by Confocal microscopic analysis; format: functional, organism-based
[18] = biological target: T1, PA-I galactophilic lectin (Pseudomonas aeruginosa (strain ATCC 15692 / PAO1 / 1C / PRS 101 / LMG12228), UniProt Q05097); assay: Binding affinity to Pseudomonas aeruginosa PAO1 LecA assessed as dissociation constant by ITC analysis
T1 sequence (Q05097 whole entry): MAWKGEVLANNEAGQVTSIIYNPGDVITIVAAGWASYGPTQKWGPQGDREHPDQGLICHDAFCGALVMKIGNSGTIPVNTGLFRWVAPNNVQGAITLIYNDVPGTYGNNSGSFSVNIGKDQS

[19] = tested on: Pseudomonas aeruginosa; assay: Anti-adhesion activity against Pseudomonas aeruginosa PAO1 assessed as inhibition of adhesion ability at 200 uM incubated for 3 hrs using glass as substrate by colony-counting method; format: functional
[20] = tested on: Pseudomonas aeruginosa; assay: Anti-adhesion activity against Pseudomonas aeruginosa PAO1 assessed as inhibition of adhesion ability at 200 uM incubated for 3 hrs using glass as substrate by SEM analysis; format: functional, organism-based
[21] = tested on: Pseudomonas aeruginosa; assay: Anti-adhesion activity against Pseudomonas aeruginosa PAO1 assessed as inhibition of adhesion ability incubated for 3 hrs using glass as substrate by colony-counting method; format: functional, organism-based; settings: PAO1, 3 h
[22] = tested on: Pseudomonas aeruginosa; assay: Anti-adhesion activity against Pseudomonas aeruginosa PAO1 to human A549 cells assessed as decrease in cell adhesion ability at 200 uM incubated for 3 hrs by DAPI staining based confocal microscopy; format: functional; parameters: scale not given: the % may be the effect or the level left
[23] = Toxicity in sheep red blood cells assessed as induction of hemolysis measured after 4 hr; format: cell-based, Ovis aries, Erythrocyte
[24] = Toxicity in sheep red blood cells assessed as induction of hemolysis at 200 uM for 4 hr; format: cell-based, Ovis aries; settings: erythrocyte
[25] = Stability of the compound in rabbit plasma assessed as retention rate at 200 to 1000 uM and measured upto 24 hrs by HPLC analysis; format: ADME, cell-free, Oryctolagus cuniculus; settings: dose 200-1000 µM, read-out: Stability
[26] = tested on: Pseudomonas aeruginosa; assay: Synergistic bactericidal activity against Pseudomonas aeruginosa PAO1 assessed as reduction in bacterial density at 200 uM incubated for 1 hrs in presence of azithromycin by colony-counting method; format: functional; parameters: scale not given: the % may be the effect or the level left
[27] = tested on: Pseudomonas aeruginosa; assay: Synergistic bactericidal activity against Pseudomonas aeruginosa PAO1 assessed as reduction in bacterial density at 200 uM incubated for 6 hrs in presence of azithromycin by colony-counting method; format: functional; parameters: scale not given: the % may be the effect or the level left
[28] = Inhibition of quorum sensing system in Pseudomonas aeruginosa PAO1 assessed as decrease of pyocyanin production at 200 uM for 18 hrs by microplate reader analysis
[29] = Inhibition of quorum sensing system in Pseudomonas aeruginosa PAO1 assessed as downregulation of lasR gene expression at 200 uM by qRT-PCR analysis

For `CC[C@H]1OC(=O)[C@H](C)[C@@H](O[C@H]2C[C@@](C)(OC)[C@@H](O)[C@H](C)O2)[C@H](C)[C@@H](O[C@@H]2O[C@H](C)C[C@H](N(C)C)[C@H]2O)[C@](C)(O)C[C@@H](C)CN(C)[C@H](C)[C@@H](O)[C@]1(C)O` [AZITHROMYCIN], which inhibition at 50 µg/mL [1] is on record?
Its inhibition at 50 µg/mL is 48%.

What about the inhibition [2] of the same molecule?
Its inhibition is “Active”.

What about the Activity [3] of the same molecule?
Its Activity is 99%.

And the Activity [4]?
Its Activity is 27%.

With `O=C1N[C@@H](Cc2c[nH]c3ccccc23)C(=O)N[C@H]1CO[C@@H]1O[C@H](CO)[C@H](O)[C@H](O)[C@H]1O` as the molecule, how does the Activity [5] read?
The Activity was 90%.

And the Activity [6]?
The Activity was “Active”.

And the inhibition [7]?
The inhibition was “Active”.

What about the inhibition [8] of the same molecule?
Its inhibition is “Active”.

What about the inhibition [9] of the same molecule?
Its inhibition is “Active”.

And the inhibition [10]?
Its inhibition is “Active”.

And the inhibition at 200 µM [11]?
Its inhibition at 200 µM is 69%.

What about the inhibition [12] of the same molecule?
The inhibition was “Active”.

What about the IC50 [13] of the same molecule?
Its IC50 is 100 µM.

And the EC50 [14]?
The EC50 was 80 µM.

And the Activity [15]?
The Activity was 54%.

And the Activity [16]?
Its Activity is “Active”.

And the Activity [17]?
The Activity was “Active”.

And the Kd [18]?
Its Kd is 91.3 µM.

What about the inhibition at 200 µM [19] of the same molecule?
Its inhibition at 200 µM is 50%.

What about the inhibition [20] of the same molecule?
Its inhibition is “Active”.

And the IC50 [21]?
The IC50 was 200 µM.

And the Activity [22]?
The Activity was 29%.

What about the HC50 at 4 h [23] of the same molecule?
The HC50 at 4 h was > 10 mM.

What about the Activity [24] of the same molecule?
The Activity was “Non-Toxic”.

And the remaining at 24 h, up to 1000 µM [25]?
The remaining at 24 h, up to 1000 µM was > 70%.

What about the Activity [26] of the same molecule?
Its Activity is 81%.

What about the Activity [27] of the same molecule?
The Activity was 7%.

For `O=C1N[C@@H](Cc2c[nH]c3ccccc23)C(=O)N[C@H]1CO[C@@H]1O[C@H](CO)[C@@H](O)[C@H](O)[C@H]1O`, which Activity [5] is on record?
Its Activity is 90%.

And the Activity [6]?
Its Activity is “Active”.

What about the inhibition [7] of the same molecule?
Its inhibition is “Active”.

What about the inhibition [8] of the same molecule?
Its inhibition is “Active”.

And the inhibition [9]?
The inhibition was “Active”.

And the inhibition [10]?
The inhibition was “Active”.

What about the inhibition at 200 µM [11] of the same molecule?
The inhibition at 200 µM was 44%.

What about the IC50 [13] of the same molecule?
The IC50 was 250 µM.

What about the EC50 [14] of the same molecule?
Its EC50 is 300 µM.

And the Activity [15]?
The Activity was 47%.

What about the Activity [16] of the same molecule?
Its Activity is “Active”.

And the Activity [17]?
The Activity was “Active”.

What about the inhibition at 200 µM [19] of the same molecule?
Its inhibition at 200 µM is 32%.

And the IC50 [21]?
The IC50 was 500 µM.

And the Activity [22]?
The Activity was “Active”.

And the HC50 at 4 h [23]?
The HC50 at 4 h was > 10 mM.

And the Activity [24]?
The Activity was “Non-Toxic”.

And the remaining at 24 h, up to 1000 µM [25]?
Its remaining at 24 h, up to 1000 µM is > 70%.

And the Activity [26]?
Its Activity is 73%.

And the Activity [27]?
Its Activity is 5%.

What does the source list for `O=C1N[C@@H](Cc2c[nH]c3ccccc23)C(=O)N[C@H]1CO`?
inhibition [7]: Active; inhibition [28]: 35%; inhibition [29]: 20%; IC50 [13]: 600 µM; EC50 [14]: 800 µM; inhibition at 200 µM [19]: 16%; IC50 [21]: 800 µM; Activity [22]: Active
